{
  "source": "patent US11931352B2",
  "about": "“Combination therapies for treating cancer” (UNIVERSITY OF VIRGINIA PATENT FOUNDATION, priority 2018, dated 2024)",
  "key": {"[1]": {"conditions": "relative to the methoxy compound; cited from earlier work"}, "MYC [2]": {"tested_on": "MYC", "experiment": "MYC transcript levels by qRT-PCR in ME-1 cells", "format": "cell-based, human", "conditions": "for MYC transcript and protein levels: single agent treatment of ME-1 cells", "method": "(§1) Quantitative RT-PCR Analysis. mRNA was prepared with a PureLink® RNA Mini Kit (Life Technologies) and cDNA synthesis was performed with a SuperScript III kit (Life Technologies), per the manufacturers' instructions. Quantitative PCR analysis was conducted on an Applied Biosystems StepOnePlus System with Power SYBR® Green PCR Master Mix (Applied Biosystems). Expression levels were determined with the ΔCt method and normalized to ([…] and/or GAPDH. Sequences of primers are provided in the Key Resource Table."}, "[3]": {"tested_on": "CBFβ-SMMHC-expressing (Nras/CM) leukemia cells", "experiment": "Leukemia transplantation study in mice (leukemia latency)", "format": "in vivo, mouse", "conditions": "i.p. from day 5; AI-10-49 200 mg/kg/day for 10 days, JQ1 50 mg/kg/day for 21 days", "method": "Leukemia transplantation studies in mice. […] AI-10-49 was administered at 200 mg/kg/day from day 5 to day 14. […] Mice were sacrificed after visible characteristics of AML, including reduced motility and grooming activity, hunched back, and pale paws (anemia). Leukemic cells were extracted from spleen and analyzed at time of euthanasia as previously described (Kuo et al., 2006).\nStatistical Analysis. Analysis was performed using R, a system for statistical computation and graphics (Ihaka and Gentleman, 1996). For mouse leukemia survival analysis, the leukemia latency and P-values were estimated using Survival package in R. P-value between groups was calculated using log-rank test. Relative cell viability, measured as the proportion of viable cells, was first arcsine-transformed to homogenize the variance. […] One-way ANOVA was performed followed by predetermined contrasts for FIGS. 2A, 2B, 2C, 2D, 2E, 4D and 7C. Two-way ANOVA was performed followed by Tukey's honest significance test for FIG. 3C. To compare the response curves (FIGS. 3A & 3D), an indicator variable was created to distinguish the two-drug treatment and one of the single-drug treatments. Two-way ANOVA was performed to compare a single-drug treatment and the two-drug treatment."}, "ME-1 cells [4]": {"tested_on": "ME-1 cells", "experiment": "Cell viability (MTT) dose response and synergy analysis in ME-1 cells", "format": "cell-based, human", "conditions": "ME-1 cells treated 72 hr, MTT assay", "experimental": "Cell Viability Assay. Cell viability was estimated using the MTT kit, CellTiter 96® AQueous One Solution (Promega, PA). 20,000 cells/well were seeded in triplicate into 96-well plates. After 24-72 hrs, 20 μl of MTT reagent was added to wells containing cells or medium (blank), and absorption at 490 nm was measured using SpectraMax M5 plate reader (Molecular Devices).\nThe IC50 was estimated using the drc package in R with lower bound set to 0 (Ritz et al., 2015). CIs were calculated using the formula a/A+b/B. Synergisms, additive effect and antagonism of combine treatment assays are defined as CI<1, CI=1 and CI>1 respectively, utilizing the Chou-Talalay Method (Chou, 2010)."}, "ME-1 cells [5]": {"tested_on": "ME-1 cells", "experiment": "RNA-sequencing expression analysis of AI-10-49 treated ME-1 cells", "format": "cell-based, human", "conditions": "AI-10-49 1 μM, 6 hrs", "method": "RNA Sequencing. The RNA for RNA-sequencing was prepared with a PureLink® RNA Mini Kit. RNA concentration was quantified with a NanoDrop spectrophotometer (Thermo Scientific). RNA integrity was evaluated with a 2100 Bioanalyzer with an RNA 6000 kit (Agilent Technologies). Libraries were prepared with a TruSeq RNA library preparation kit (Illumina). Libraries were quantified by qPCR, normalized and pooled before sequencing with paired-end 90-bp reads on an Illumina HiSeq2000 in triplicate.\nRNA-seq data analysis. Raw reads from RNA-seq experiment were assessed for their quality using fastqc, followed by alignment to the reference human genome (hg19) using tophat v 2.0.9, bowtie2/2.1.0 (Trapnell et al., 2009) with the default setting except the following parameters: -b2-very-sensitive-mate-inner-dist 160-mate-std-dev 80-no-coverage-search-transcriptome-index=hg19_knownGene_transcriptome_data. Differential gene expression analysis was performed by cufflinks v 2.2.0 (Trapnell et al., 2012)."}, "[6]": {"tested_on": "non-inv(16) AML cells (U937, K562, Jurkat, Kasumi-1 and THP-1)", "experiment": "MYC transcript levels in non-inv(16) AML cell lines", "format": "cell-based", "conditions": "1 μM AI-10-49, 6 hrs", "method": "as §1"}, "MYC [7]": {"tested_on": "MYC", "experiment": "MYC protein levels by immunoblot in ME-1 cells", "format": "cell-based, human", "conditions": "0.1 μM and greater concentrations, 6 hrs", "method": "Immunoblotting. ME-1 cells were lysed in modified RIPA buffer (50 mM Tris pH7.5, 150 mM NaCl, 1% NP40, 0.25% sodium deoxycholate and 1 mM EDTA) with phosphatase inhibitor (Sigma) and protease inhibitors (Millipore) for 15 min in ice followed by centrifugation. Nuclear and cytoplasmic fractions were isolated using Subcellular Protein Fractionation Kit (Thermo Fisher Scientific) according to the manufacturer's instructions. Protein concentrations were determined with the Biorad Protein Assay (Biorad). Proteins were separated on precast 8-12% Mini Protean TGX gels at 60-80 V using the Mini Protean electrophoresis system and were blotted onto PVDF membrane at 100V for 90 min in a Mini Trans-Blot Cell. All antibodies were used as recommended by the manufacturer and mentioned in Key Resource Table. Relative band intensities were quantified using ImageJ software."}, "[8]": {"tested_on": "lineage negative mouse Cbfb+/MYH11 leukemic cells", "experiment": "MYC expression in mouse Cbfb+/MYH11 leukemic cells", "format": "cell-based", "conditions": "5 μM AI-10-49, 24 hrs", "method": "(§2) Murine bone marrow cells were isolated by crushing femur and tibia of the hind legs of mice. Wild type mouse bone marrow cells were cultured in StemSpan Serum-Free Expansion Medium (SFEM, Stemcell Technologies), 100 U/ml Penicillin and […] Streptomycin (Life Technologies) supplemented with 6 ng/ml murine recombinant IL3, 10 ng/ml murine recombinant IL6, and 50 ng/ml murine recombinant SCF. Cbfb^+/MYH11 and Nras^+/G120 leukemic bone marrow and spleen cells were cultured in StemSpan Serum-Free Expansion Medium (SFEM, Stemcell Technologies), 100 U/ml Penicillin and […] Streptomycin (Life Technologies) supplemented with 10 ng/ml murine recombinant IL3, and 50 ng/ml murine recombinant SCF.\nas §1"}, "[9]": {"tested_on": "human primary inv(16) leukemic CD34+ cells", "experiment": "MYC expression in human primary inv(16) AML cells", "format": "cell-based", "conditions": "5 μM AI-10-49, 24 hrs", "excerpt": "(§3) Primary Hematopoietic Cell Cultures. Human cord blood samples were collected from the UMASS Memorial Medical Center, and CD34^+ cells were isolated using the CD34 Microbead kit (Miltenyi Biotec). The use of the cord blood samples for research purposes was approved by the Ethics Committee of the University of Massachusetts Medical School. Human AML samples were received from Martin Peter Carroll (University of Pennsylvania) and Carsten Mueller-Tidow (University of Heidelberg, Germany). Hematopoietic CD34^+ cells were isolated from human AML bone marrow samples using the CD34 Microbead kit (Miltenyi Biotec). All patients gave written consent for use of their samples. […]\nas §1"}, "[10]": {"tested_on": "wild type lineage negative mouse bone marrow cells", "experiment": "MYC expression in normal mouse bone marrow cells", "format": "cell-based", "conditions": "5 μM AI-10-49, 24 hrs", "method": "as §2, §1"}, "[11]": {"tested_on": "human cord blood CD34+ cells", "experiment": "MYC expression in normal human CD34+ hematopoietic cells", "format": "cell-based", "conditions": "5 μM AI-10-49, 24 hrs", "excerpt": "as §3, §1"}, "H3K27ac": {"tested_on": "H3K27ac", "experiment": "ChIP-seq for H3K27ac in ME-1 cells", "format": "cell-based, human", "conditions": "AI-10-49 1 μM, 6 hrs; DMSO 31,102", "method": "(§4) Chromatin Immunoprecipitation (ChIP). ME-1 cells were treated with DMSO or AI-10-49 (1 μM) for six hrs. Cross-linking of proteins to DNA was accomplished by the addition of 1% formaldehyde for 10 min to cultured cells at room temperature. After neutralization with glycine, cells were lysed in lysis buffer with protease inhibitors and samples were sonicated to an average DNA length of 200-400 bp with a bioruptor (Diagenode). After sonication, the chromatin was immunoprecipitated with 10 μg of antibody of interest at 4° C. overnight. Antibody bound complexes were isolated with Dynabeads (Life Technologies). DNA was purified using phenol-chloroform isoamyl-alcohol method. Immunoprecipitated DNA was analyzed by sequencing (explained below) or qPCR on a StepOnePlus System (Applied Biosystems) with Power SYBR® Green PCR Master Mix and calculated as % of input.\n(§5) Chromatin immunoprecipitation followed by sequencing (ChIP-seq). DNA concentration was quantified with a NanoDrop spectrophotometer (Thermo Scientific). DNA integrity was evaluated with a 2100 Bioanalyzer (Agilent Technologies). […] Libraries were quantified by qPCR, normalized and pooled before sequencing with single-end 50-bp reads on an Illumina HiSeq4000).\n(§6) ChIP-seq data analysis. ChIP-seq reads were aligned to the human genome (hg19) with Bowtie2 v 2.1.0 (Langmead and Salzberg, 2012) with the standard default settings. […]"}, "RUNX1 [12]": {"tested_on": "RUNX1", "experiment": "ChIP-seq for RUNX1 in ME-1 cells", "format": "cell-based, human", "conditions": "AI-10-49 1 μM, 6 hrs", "method": "as §4, §5, §6"}, "RUNX1 [13]": {"tested_on": "RUNX1", "experiment": "ChIP-qPCR for RUNX1 at MYC enhancers in ME-1 cells", "format": "cell-based, human", "method": "as §4, with “ME-1 cells were treated with DMSO or AI-10-49 (1 μM) for six hrs.” left out"}, "RING1B": {"tested_on": "RING1B", "experiment": "Time-course ChIP-qPCR for RING1B at E3 in ME-1 cells", "format": "cell-based, human", "conditions": "by 5 hr of AI-10-49 treatment", "method": "as §4, with “ME-1 cells were treated with DMSO or AI-10-49 (1 μM) for six hrs.” left out"}, "CBFβ": {"biological_target": "T1, CBFβ (Homo sapiens, UniProt Q13951)", "T1 sequence (Q13951 1-182)": "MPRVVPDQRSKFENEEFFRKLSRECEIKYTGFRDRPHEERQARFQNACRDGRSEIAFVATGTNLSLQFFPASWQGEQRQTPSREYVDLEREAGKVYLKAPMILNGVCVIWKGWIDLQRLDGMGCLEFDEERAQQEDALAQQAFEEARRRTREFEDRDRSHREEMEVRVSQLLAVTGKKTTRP", "conditions": "cited from earlier work"}, "[14]": {"conditions": "AI-10-49 versus DMSO, ME-1 cells"}},
  "data": [
    {"smiles": "FC(F)(F)Oc1ccc2[nH]c(-c3ccccn3)nc2c1", "note": "[A-10-47, 2-(pyridin-2-yl)-5-(trifluoromethoxy)-1H-benzo[d]imidazole]", "values": [
      {"measurement": "metabolic stability", "setting": "[1]", "result": "enhanced metabolic stability"}
    ]},
    {"smiles": "Cc1sc2c(c1C)C(c1ccc(Cl)cc1)=N[C@@H](CC(=O)OC(C)(C)C)c1nnc(C)n1-2", "note": "[JQ1, reference compound]", "values": [
      {"measurement": "MYC transcript and protein levels", "setting": "MYC [2]", "result": "readily reduced"},
      {"measurement": "median latency of leukemia", "setting": "[3]", "result": 32, "unit": "days"}
    ]},
    {"smiles": "FC(F)(F)Oc1ccc2[nH]c(-c3ccc(OCCOCCOc4ccc(-c5nc6cc(OC(F)(F)F)ccc6[nH]5)nc4)cn3)nc2c1", "note": "[AI-10-49]", "values": [
      {"measurement": "LD50 range at 95% confidence intervals", "setting": "ME-1 cells [4]", "result": "0.398 to 0.537", "unit": "mM"},
      {"measurement": "E2F1 levels repressed (RNA-seq)", "setting": "ME-1 cells [5]", "result": 3, "unit": "fold"},
      {"measurement": "MYC levels repressed (RNA-seq)", "setting": "ME-1 cells [5]", "result": "over 10 fold"},
      {"measurement": "repression of MYC transcript levels", "setting": "MYC [2]; 1 uM AI-10-49, 6 hrs, ME-1 cells", "result": 10, "unit": "fold"},
      {"measurement": "MYC transcript and protein levels", "setting": "MYC [2]", "result": "readily reduced"},
      {"measurement": "repression of MYC transcript levels", "setting": "[6]", "result": "not in non-inv(16) AML cell lines"},
      {"measurement": "MYC protein levels depleted", "setting": "MYC [7]", "result": "approximately 20 fold"},
      {"measurement": "MYC expression", "setting": "[8]", "result": "reduced"},
      {"measurement": "MYC expression", "setting": "[9]", "result": "reduced"},
      {"measurement": "MYC expression", "setting": "[10]", "result": "not affected"},
      {"measurement": "MYC expression", "setting": "[11]", "result": "not affected"},
      {"measurement": "median latency of leukemia", "setting": "[3]", "result": 39, "unit": "days"},
      {"measurement": "H3K27ac positive peaks", "setting": "H3K27ac", "result": "24,157 peaks"},
      {"measurement": "increase in RUNX1 binding to target regulatory elements", "setting": "RUNX1 [12]; versus DMSO", "result": 7, "unit": "fold"},
      {"measurement": "RUNX1 binding sites", "setting": "RUNX1 [12]; DMSO 991", "result": "6,652 sites"},
      {"measurement": "RUNX1 peak increase at BDME-E3", "setting": "RUNX1 [13]; [14]", "result": 8, "unit": "fold"},
      {"measurement": "RUNX1 peak increase at E5", "setting": "RUNX1 [13]; [14]", "result": 1.8, "unit": "fold"},
      {"measurement": "RUNX1 peak increase at ME1", "setting": "RUNX1 [13]; [14]", "result": 5, "unit": "fold"},
      {"measurement": "RUNX1 peak increase at ME2", "setting": "RUNX1 [13]; [14]", "result": 3, "unit": "fold"},
      {"measurement": "RUNX1 occupancy at E3", "setting": "RUNX1 [13]; time course, by 5 hr of AI-10-49 treatment", "result": 90, "unit": "%"},
      {"measurement": "RING1B occupancy at E3", "setting": "RING1B", "result": 90, "unit": "%"},
      {"measurement": "effect on CBFβ function", "setting": "CBFβ", "result": "minimal effect"}
    ]}
  ]
}
